From patent publication US12404283B2, “c-MYC mRNA translation modulators and uses thereof in the treatment of cancer” (Anima Biotech Inc., priority 2022, dated 2025)
Where a name gives a salt, the structure may show the parent alone.

These molecules were tested on c-Myc (assay: c-Myc immunofluorescence assay). Settings: A549 cells, 24 hours treatment, anti-c-Myc immunofluorescence.
Assay type: cell-based, human
Method: A549 human non-small cell lung carcinoma cells were treated for 24 hours with increasing compound concentration, cells were fixed and stained with a nuclei stain (DAPI) and anti-c-Myc fluorescent antibody. The c-Myc signal was quantified by image analysis, and data was exported and analyzed using TIBCO Spotfire® (TIBCO Corporation). Dose response curves were generated and fitted with logaristic regression to calculate potency (EC50 values). Potency values are presented in Table 2 for all compounds and are shown for selected compounds (FIG. 4).
A549 cells were grown in 384-wells plates (Perkin Elmer, Cat. 6057300) for 48 hours, treated with compounds and then fixed for 20 min in 4% paraformaldehyde. After that permeabilization was done using 0.1% Triton X-100 in PBS for 20 min. Primary anti-c-Myc antibody (Abcam, ab32072) staining was performed for 90 min at room temperature. Cells then were washed twice with PBS and incubated with secondary antibody (Abcam, ab150075) for 90 min at room temperature. Nuclei were stained with DAPI for 10 min and washed twice with PBS.
Cell images were taken with Operetta (Perkin Elmer, USA), a wide-field fluorescence microscope at 20× magnification. After acquisition, the images were transferred to Columbus software (Perkin-Elmer) for image analysis. In Columbus, cells were identified by their nucleus, using the “Find Nuceli” module and cytoplasm was detected based on the secondary antibody channel. Subsequently, the fluorescent signal was enumerated in the identified cell region. Then data was exported to a data analysis and visualization software, Tibco Spotfire, USA.

Row | Structure (SMILES) | Myc Efficacy (−LogEC50)
1 | O=C(NCCCN1CCC(F)CC1)c1cc2sc3nc(-c4ccc([C@@H]5CCCN5)cc4F)cn3c2cn1 [Compound 509S, (S)-2-(2-fluoro-4-(pyrrolidin-2-yl)phenyl)-N-(3-(4-fluoropiperidin-1-yl)propyl)imidazo[2′,1′:2,3]thiazolo[4,5-c]pyridine-7-carboxamide] | +++ (+++ ≥6)
2 | O=C(NC1CCOCC1)c1ccc2c(c1)sc1nc(-c3ccc(C4CCCN4)cc3F)cn12 (stereo not shown) [Compound 510, 2-(2-fluoro-4-(pyrrolidin-2-yl)phenyl)-N-(tetrahydro-2H-pyran-4-yl)benzo[d]imidazo[2,1-b]thiazole-7-carboxamide] | +++ (+++ ≥6)
3 | NC(=O)c1ccc2c(c1)sc1nc(-c3ccc(C4CCNC4)cc3F)cn12 (stereo not shown) [Compound 511, 2-(2-fluoro-4-(pyrrolidin-3-yl)phenyl)benzo[d]imidazo[2,1-b]thiazole-7-carboxamide] | +++ (+++ ≥6)
4 | O=C(NCCCN1CCC(F)CC1)c1ccc2c(c1)sc1nc(-c3ccc(C4(O)CCNCC4)cc3F)cn12 [Compound 512, 2-(2-fluoro-4-(4-hydroxypiperidin-4-yl)phenyl)-N-(3-(4-fluoropiperidin-1-yl)propyl)benzo[d]imidazo[2,1-b]thiazole-7-carboxamide] | +++ (+++ ≥6)
5 | O=C(NCCCN1CCC(F)CC1)c1ccc2c(c1)sc1nc(-c3ccc(C4CCCNC4)cc3F)cn12 (stereo not shown) [Compound 513, 2-(2-fluoro-4-(piperidin-3-yl)phenyl)-N-(3-(4-fluoropiperidin-1-yl)propyl)benzo[d]imidazo[2,1-b]thiazole-7-carboxamide] | +++ (+++ ≥6)
6 | NC(=O)c1cc2sc3nc(-c4ccc(C5CCCN5)cc4F)cn3c2cn1 (stereo not shown) [Compound 514, 2-(2-fluoro-4-(pyrrolidin-2-yl)phenyl)imidazo[2′,1′:2,3]thiazolo[4,5-c]pyridine-7-carboxamide] | +++ (+++ ≥6)
7 | CNC(=O)c1cc2sc3nc(-c4ccc(C5CCCN5)cc4F)cn3c2cn1 (stereo not shown) [Compound 515, 2-(2-fluoro-4-(pyrrolidin-2-yl)phenyl)-N-methylimidazo[2′,1′:2,3]thiazolo[4,5-c]pyridine-7-carboxamide] | +++ (+++ ≥6)
8 | O=C(NCCCN1CCC(F)CC1)c1ccc2c(c1)sc1nc(-c3ccc(C4(O)CCNC4)cc3F)cn12 (stereo not shown) [Compound 516, 2-(2-fluoro-4-(3-hydroxypyrrolidin-3-yl)phenyl)-N-(3-(4-fluoropiperidin-1-yl)propyl)benzo[d]imidazo[2,1-b]thiazole-7-carboxamide] | +++ (+++ ≥6)
9 | CN1CCC(NC(=O)c2ccc3c(c2)sc2nc(-c4ccc(C5COCCN5)cc4F)cn23)CC1 (stereo not shown) [Compound 517, 2-(2-fluoro-4-(morpholin-3-yl)phenyl)-N-(1-methylpiperidin-4-yl)benzo[d]imidazo[2,1-b]thiazole-7-carboxamide] | +++ (+++ ≥6)
10 | CN1CCC(NC(=O)c2ccc3c(c2)sc2nc(-c4ccc(C5CNCCO5)cc4F)cn23)CC1 (stereo not shown) [Compound 519, 2-(2-fluoro-4-(morpholin-2-yl)phenyl)-N-(1-methylpiperidin-4-yl)benzo[d]imidazo[2,1-b]thiazole-7-carboxamide] | +++ (+++ ≥6)
11 | CN1CCC(NC(=O)c2ccc3c(c2)sc2nc(-c4ccc([C@@H]5C[C@@H](O)CN5)cc4F)cn23)CC1 [Compound 522R, 2-(2-fluoro-4-((2S,4R)-4-hydroxypyrrolidin-2-yl)phenyl)-N-(1-methylpiperidin-4-yl)benzo[d]imidazo[2,1-b]thiazole-7-carboxamide] | +++ (+++ ≥6)
12 | CN1CCC(NC(=O)c2ccc3c(c2)sc2nc(-c4ccc([C@@H]5C[C@H](O)CN5)cc4F)cn23)CC1 [Compound 522S, 2-(2-fluoro-4-((2S,4S)-4-hydroxypyrrolidin-2-yl)phenyl)-N-(1-methylpiperidin-4-yl)benzo[d]imidazo[2,1-b]thiazole-7-carboxamide] | +++ (+++ ≥6)
13 | O=C(NC1CCCOC1)c1ccc2c(c1)sc1nc(-c3ccc(C4CCCN4)cc3F)cn12 (stereo not shown) [Compound 525, 2-(2-fluoro-4-(pyrrolidin-2-yl)phenyl)-N-(tetrahydro-2H-pyran-3-yl)benzo[d]imidazo[2,1-b]thiazole-7-carboxamide] | +++ (+++ ≥6)
14 | O=C(NC1CCOCC1)c1ccc2c(c1)sc1nc(-c3ccc(C4CCNCC4)cc3F)cn12 [Compound 529, 2-(2-fluoro-4-(piperidin-4-yl)phenyl)-N-(tetrahydro-2H-pyran-4-yl)benzo[d]imidazo[2,1-b]thiazole-7-carboxamide] | +++ (+++ ≥6)
15 | O=C(NC1CCOCC1)c1ccc2c(c1)sc1nc(-c3ccc(C4COCCN4)cc3F)cn12 (stereo not shown) [Compound 534, 2-(2-fluoro-4-(morpholin-3-yl)phenyl)-N-(tetrahydro-2H-pyran-4-yl)benzo[d]imidazo[2,1-b]thiazole-7-carboxamide] | +++ (+++ ≥6)
16 | O=C(NC1CCOCC1)c1ccc2c(c1)sc1nc(-c3ccc(C4CNCCO4)cc3F)cn12 (stereo not shown) [Compound 535, 2-(2-fluoro-4-(morpholin-2-yl)phenyl)-N-(tetrahydro-2H-pyran-4-yl)benzo[d]imidazo[2,1-b]thiazole-7-carboxamide] | +++ (+++ ≥6)
17 | CN1CCC(NC(=O)c2ccc3c(c2)sc2nc(-c4ccc(C5(F)CCNCC5)cc4F)cn23)CC1 [Compound 536, 2-(2-fluoro-4-(4-fluoropiperidin-4-yl)phenyl)-N-(1-methylpiperidin-4-yl)benzo[d]imidazo[2,1-b]thiazole-7-carboxamide] | +++ (+++ ≥6)
18 | O=C1CNC(c2ccc(-c3cn4c(n3)sc3cc(C(=O)NC5CCOCC5)ccc34)c(F)c2)C1 (stereo not shown) [Compound 537, 2-(2-fluoro-4-(4-oxopyrrolidin-2-yl)phenyl)-N-(tetrahydro-2H-pyran-4-yl)benzo[d]imidazo[2,1-b]thiazole-7-carboxamide] | +++ (+++ ≥6)
19 | NC(CO)c1ccc(-c2cn3c(n2)sc2cc(C(=O)NCCCN4CCC(F)CC4)ccc23)c(F)c1 (stereo not shown) [Compound 539, 2-(4-(1-amino-2-hydroxyethyl)-2-fluorophenyl)-N-(3-(4-fluoropiperidin-1-yl)propyl)benzo[d]imidazo[2,1-b]thiazole-7-carboxamide] | +++ (+++ ≥6)
20 | O=C(NCCCN1CCC(F)CC1)c1ccc2c(c1)sc1nc(-c3ccc(C4CC(C(F)F)CN4)cc3F)cn12 (stereo not shown) [Compound 542, 2-(4-(4-(difluoromethyl)pyrrolidin-2-yl)-2-fluorophenyl)-N-(3-(4-fluoropiperidin-1-yl)propyl)benzo[d]imidazo[2,1-b]thiazole-7-carboxamide] | +++ (+++ ≥6)
21 | O=C(NCCCN1CCC(F)CC1)c1ccc2c(c1)sc1nc(-c3ccc(C4CCNO4)cc3F)cn12 (stereo not shown) [Compound 543, 2-(2-fluoro-4-(isoxazolidin-5-yl)phenyl)-N-(3-(4-fluoropiperidin-1-yl)propyl)benzo[d]imidazo[2,1-b]thiazole-7-carboxamide] | +++ (+++ ≥6)
22 | CN1CCC(NC(=O)c2ccc3c(c2)sc2nc(-c4ccc(N5CCNCC5)cc4F)cn23)CC1 [Compound 547, 2-(2-fluoro-4-(piperazin-1-yl)phenyl)-N-(1-methylpiperidin-4-yl)benzo[d]imidazo[2,1-b]thiazole-7-carboxamide] | +++ (+++ ≥6)
23 | CC(=O)Nc1ccc2c(c1)sc1nc(-c3ccc(C4CCCN4)cc3F)cn12 (stereo not shown) [Compound 548, N-(2-(2-fluoro-4-(pyrrolidin-2-yl)phenyl)benzo[d]imidazo[2,1-b]thiazol-7-yl)acetamide] | +++ (+++ ≥6)
24 | CN1CCC(C(=O)Nc2ccc3c(c2)sc2nc(-c4ccc(C5CCCN5)cc4F)cn23)CC1 (stereo not shown) [Compound 593, N-(2-(2-fluoro-4-(pyrrolidin-2-yl)phenyl)benzo[d]imidazo[2,1-b]thiazol-7-yl)-1-methylpiperidine-4-carboxamide dihydrochloride] | +++ (+++ ≥6)
25 | O=C(Nc1ccc2c(c1)sc1nc(-c3ccc(C4CCCN4)cc3F)cn12)C1CCOCC1 (stereo not shown) [Compound 594, N-(2-(2-fluoro-4-(pyrrolidin-2-yl)phenyl)benzo[d]imidazo[2,1-b]thiazol-7-yl)tetrahydro-2H-pyran-4-carboxamide hydrochloride] | +++ (+++ ≥6)
26 | O=C(NCCCN1CCC(F)CC1)c1ccc2c(c1)sc1nc(-c3cc4c(cc3F)CCNC4)cn12 [Compound 600, 2-(6-fluoro-1,2,3,4-tetrahydroisoquinolin-7-yl)-N-(3-(4-fluoropiperidin-1-yl)propyl)benzo[d]imidazo[2,1-b]thiazole-7-carboxamide dihydrochloride] | +++ (+++ ≥6)
27 | O=C(NCCCN1CCC(F)CC1)c1ccc2c(c1)sc1nc(-c3cc4c(cc3F)NCC4)cn12 [Compound 602, 2-(6-fluoroindolin-5-yl)-N-(3-(4-fluoropiperidin-1-yl)propyl)benzo[d]imidazo[2,1-b]thiazole-7-carboxamide] | +++ (+++ ≥6)
28 | O=C(NCCCN1CCCCC1)c1ccc2c(c1)sc1nc(-c3ccccc3)cn12 [compound 101, 2-phenyl-N-(3-(piperidin-1-yl)propyl)benzo[d]imidazo[2,1-b]thiazole-7-carboxamide] | +++ (+++ ≥6)
